Columns and labels:
Test in all cases: selective drug sensitivity score (sDSS, relative to normal bone marrow) (sDSS (score)); higher = more potent and effective on the cell line relative to normal bone marrow cells
Conditions in all cases: 72 h
[1] = test system: MHH-CALL-2
[2] = test system: MHH-CALL-4
[3] = test system: TMD5
[4] = test system: NALL-1
[5] = test system: CCRF-CEM
[6] = test system: ALL-SIL
[7] = test system: KASUMI-10
[8] = test system: 380
[9] = test system: DND-41
[10] = test system: REH
[11] = test system: HPB-ALL
[12] = test system: RPMI-8402
[13] = test system: SEM cells
[14] = test system: KASUMI-2
[15] = test system: ALL-PO
[16] = test system: TANOUE
[17] = test system: LC4-1
[18] = test system: KARPAS-45
[19] = test system: RCH-ACV
[20] = test system: PF-382
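Note: ALL cell lines in 384-well plates, five doses spanning 10,000-fold, each plate scaled between vehicle and 100 µmol/L benzalkonium chloride controls, sDSS an adapted area-under-curve metric.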

SMILES | selective drug sensitivity score [1] | selective drug sensitivity score [2] | selective drug sensitivity score [3] | selective drug sensitivity score [4] | selective drug sensitivity score [5] | selective drug sensitivity score [6] | selective drug sensitivity score [7] | selective drug sensitivity score [8] | selective drug sensitivity score [9] | selective drug sensitivity score [10] | selective drug sensitivity score [11] | selective drug sensitivity score [12] | selective drug sensitivity score [13] | selective drug sensitivity score [14] | selective drug sensitivity score [15] | selective drug sensitivity score [16] | selective drug sensitivity score [17] | selective drug sensitivity score [18] | selective drug sensitivity score [19] | selective drug sensitivity score [20]
CCNC(=O)C[C@@H]1N=C(c2ccc(Cl)cc2)c2cc(OC)ccc2-n2c(C)nnc21 [Molibresib] (top concentration 10000 nM) | 8.4 | 6.9 | 5.2 | 3.4 | 0.8 | -3.3 | 5.3 | -5.5 | -0.9 | 0.8 | 0.8 | 1.4 | 7.7 | -2.7 | 3.6 | -6.2 | 3.7 | 5.3 | 7.7 | 2.7
CC(C)(C)c1nc(-c2cccc(NS(=O)(=O)c3c(F)cccc3F)c2F)c(-c2ccnc(N)n2)s1 [Dabrafenib] (top concentration 2500 nM) | 9.18 | 3.08 | 1.18 | -1.42 | 0.58 | 3.48 | 0.58 | -1.52 | -1.52 | -1.52 | 2.98 | -1.12 | -1.52 | -1.52 | -0.22 | 0.48 | 6.48 | 2.18 | 0.88 | 0.38
COc1cccc2c1C(=O)c1c(O)c3c(c(O)c1C2=O)C[C@@](O)(/C(CO)=N/NC(=O)CCCCCN1C(=O)C=CC1=O)C[C@@H]3O[C@H]1C[C@H](N)[C@H](O)[C@H](C)O1 [Aldoxorubicin] (top concentration 1000 nM) | 9.84 | 8.14 | 0.34 | -1.86 | 7.24 | 0.74 | 9.24 | 13.2 | 1.84 | 12.1 | 1.04 | 5.34 | 3.64 | 8.54 | -2.06 | -7.76 | 6.34 | 0.94 | 11.7 | 3.24
COc1cc(Nc2ncc3c(n2)-c2ccc(Cl)cc2C(c2c(F)cccc2OC)=NC3)ccc1C(=O)O [Alisertib] (top concentration 10000 nM) | 14.9 | -5.62 | 11 | 16.2 | 21.5 | 17.2 | 14.6 | 26.4 | 0.88 | 14.4 | 14.3 | 10.2 | 26.8 | 18.5 | 15.6 | -5.62 | 25.5 | 27.9 | 24.3 | 14.3
CCCCCCCCCCCCCCCCOP(=O)([O-])OCC[N+](C)(C)C [Miltefosine] (top concentration 100000 nM) | 6.96 | -1.34 | -1.64 | 5.26 | -0.04 | 3.36 | -1.14 | -1.54 | 2.66 | 2.76 | -2.94 | 1.46 | 4.36 | 1.76 | 2.26 | 1.76 | 7.46 | 2.26 | 3.16 | 1.16
NC(=O)N1CCC(CC(=O)N2CCC([C@H]3c4ncc(Br)cc4CCc4cc(Cl)cc(Br)c43)CC2)CC1 [Lonafarnib] (top concentration 100000 nM) | 9.24 | 7.44 | -3.36 | 1.54 | 9.74 | 9.34 | -1.56 | -1.06 | 4.54 | 8.04 | 9.84 | 19.2 | 14.1 | 6.14 | 4.64 | -3.96 | 3.44 | 24.1 | 8.64 | 9.44
CNc1ncc2cc(-c3cc(NC(=O)NCCC(C)(C)C)c(F)cc3C)c(C)nc2n1 (top concentration 10000 nM) | 9.76 | 8.96 | 7.86 | 4.96 | 5.56 | 20.7 | 3.96 | 7.76 | 8.06 | -2.24 | 2.46 | 0.66 | 5.66 | 0.36 | 4.86 | -2.84 | 7.86 | 5.26 | 12.7 | 9.66
FC(F)(F)c1ccc(CNc2ccc(Cc3c[nH]c4ncc(Cl)cc34)cn2)cn1 [Pexidartinib] (top concentration 10000 nM) | -0.92 | -2.22 | -2.22 | -1.92 | -0.72 | -0.52 | 8.78 | -2.22 | -2.12 | 0.38 | -1.92 | 0.58 | 12.6 | -2.22 | 6.68 | -2.22 | 1.98 | -0.02 | 1.58 | -1.22
Nc1ccccc1NC(=O)c1ccc(CNC(=O)OCc2cccnc2)cc1 [Entinostat] (top concentration 10000 nM) | 8.98 | 8.88 | 5.38 | -0.82 | 3.78 | 12.1 | 3.68 | 13.1 | 1.28 | 2.68 | 4.28 | 5.08 | 12.9 | 7.68 | 4.08 | -8.52 | 4.48 | 9.48 | 9.98 | 2.08
CNC(=O)c1cccc(-c2ccc3c(N4CCOC[C@@H]4C)nc(N4CCOC[C@@H]4C)nc3n2)c1 [Vistusertib] (top concentration 10000 nM) | 9.52 | 5.82 | 3.02 | -3.58 | 8.22 | 8.52 | 0.32 | 17.1 | 9.02 | 9.32 | 1.12 | 5.52 | 4.82 | 15 | 10 | -2.78 | 5.12 | 5.02 | 24.5 | 7.02
O=C(Nc1cccc(NC(=O)c2cccc(O)c2O)c1)c1cccc(O)c1O [MST-312] (top concentration 10000 nM) | 10.8 | 1.8 | -3 | 0.8 | 7.1 | 9.6 | 1 | 6 | 7.2 | 7.4 | 8.7 | 5.9 | 0.6 | -1.6 | 5.6 | 3.7 | 8.1 | 8.1 | 0.7 | 6
COc1ccc(COc2cc3oc(=O)c4cc(C(C)O)ccc4c3cc2OC)cc1 (stereo not given) [Palomid-529] (top concentration 10000 nM) | 1.06 | -0.24 | -0.24 | -0.04 | 0.86 | -0.24 | -0.24 | 5.86 | -0.24 | 6.66 | 0.76 | 2.86 | 1.76 | -0.24 | 2.86 | 0.36 | 12.6 | 2.76 | -0.14 | 1.06
CC(C)[C@@H](CS(=O)(=O)C(C)C)N1C(=O)[C@@](C)(CC(=O)O)C[C@H](c2cccc(Cl)c2)[C@H]1c1ccc(Cl)cc1 [AMG-232] (top concentration 10000 nM) | 11.7 | 10.9 | 6.76 | -8.14 | -7.34 | -8.14 | 10.1 | 13 | -8.84 | 8.36 | -9.34 | -9.14 | -8.34 | 12.3 | -6.94 | -10.5 | 11.3 | -8.34 | 12.1 | -8.94
CN(c1ncccc1CNc1nc(Nc2ccc3c(c2)CC(=O)N3)ncc1C(F)(F)F)S(C)(=O)=O (top concentration 10000 nM) | -1.28 | -0.78 | -3.28 | 2.42 | -0.28 | 4.92 | 6.62 | 4.02 | 0.62 | 5.12 | -1.18 | 1.52 | 7.22 | -0.38 | 6.62 | -3.98 | 3.82 | 2.72 | 3.62 | -0.78
C[C@@H](Nc1cc(F)cc(F)c1)c1cc(C(=O)N(C)C)cc2c(=O)cc(N3CCOCC3)oc12 [AZD-8186] (top concentration 1000 nM) | 4.64 | 4.34 | -0.26 | 2.34 | -0.26 | -0.26 | -0.26 | 2.84 | -0.26 | 9.54 | 1.94 | 0.44 | 2.44 | 7.54 | 0.34 | -0.26 | -0.26 | 2.14 | 14.9 | 0.54
CC(C)[C@H](C(=O)Nc1ccc(C(=O)NO)cc1)c1ccccc1 [AR-42] (top concentration 10000 nM) | 11 | 8.08 | 5.28 | 3.68 | 6.68 | 10.2 | 6.88 | 10.1 | 6.98 | 5.38 | 9.78 | 8.18 | 9.08 | 16 | 10.7 | -4.22 | 6.88 | 10.8 | 13.9 | 5.78
CC1(C)CCC(c2ccc(Cl)cc2)=C(CN2CCN(c3ccc(C(=O)NS(=O)(=O)c4ccc(N[C@H](CCN5CCOCC5)CSc5ccccc5)c(S(=O)(=O)C(F)(F)F)c4)cc3)CC2)C1 [Navitoclax] (top concentration 10000 nM) | 21.1 | 18.4 | 16.9 | 22.9 | 17.4 | 20 | 26.4 | 26.1 | 15.1 | 4.92 | 17.8 | 7.42 | 14.2 | 24.8 | 23.6 | -8.58 | 22.2 | 22.8 | 3.32 | 13.7
CO[C@@H]1[C@H](N(C)C(=O)c2ccccc2)C[C@H]2O[C@]1(C)n1c3ccccc3c3c4c(c5c6ccccc6n2c5c31)C(=O)NC4 [Midostaurin] (top concentration 10000 nM) | 3.86 | 3.66 | 0.66 | 5.36 | 7.06 | 10.8 | 13.4 | 10.1 | 2.46 | 3.66 | 4.36 | 3.66 | 19.3 | -1.14 | 14.8 | -7.24 | 10.6 | 4.06 | 16.2 | 4.46
